In PMC6720452, “Structural Basis for Recruitment of DAPK1 to the KLHL20 E3 Ligase” (Structure(London, England:1993), 2019):

Tests used:
Kelch domain of KEAP1 = settings: ref Tong et al., 2006; cited from earlier work
Description: However, this is weaker than the low nanomolar binding observed for NRF2 interaction with the Kelch domain of KEAP1 ([Tong et al., 2006]). These differences may reflect the strict regulation of NRF2, which ensures its constitutive degradation, or the requirement for substrate co-adaptors as found for KLHL12 ([McGourty et al., 2016]). Alternatively, t ...

Kelch domain of KLHL20 = molecular target: T1, Kelch domain of KLHL20 (Homo sapiens, UniProt Q9Y2M5); assay: Surface plasmon resonance, immobilized KLHL20; settings: SPR, BIACORE S200, CM5 chip, amine coupling, 25°C, HBS-P buffer, 30 μL/min, peptide 1.6-200 μM, one-site steady-state affinity; representative of two independent experiments; N.B., no binding detected
T1 construct: human KLHL20 (Uniprot Q9Y2M5 isoform 1, M303-E605); hexahistidine tag with TEV cleavage site (N); made in house; host or cells: E. coli BL21(DE3)R3-pRARE2
T1 sequence (Q9Y2M5 303-605): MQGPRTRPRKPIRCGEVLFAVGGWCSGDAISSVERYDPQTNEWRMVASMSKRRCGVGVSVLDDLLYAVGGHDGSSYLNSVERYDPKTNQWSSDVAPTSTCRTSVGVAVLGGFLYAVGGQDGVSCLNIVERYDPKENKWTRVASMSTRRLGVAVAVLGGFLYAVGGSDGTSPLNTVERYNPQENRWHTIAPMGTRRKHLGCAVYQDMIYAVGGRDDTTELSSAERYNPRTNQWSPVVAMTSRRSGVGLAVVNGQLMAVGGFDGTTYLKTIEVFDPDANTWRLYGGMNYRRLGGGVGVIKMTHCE
Description: (C) For SPR experiments, KLHL20 and KLHL3 Kelch domains were immobilized by amine coupling on different flow cells of a CM5 sensor chip. Indicated DAPK1 peptides were injected subsequently at concentrations of 1.6 μM, 3.1 μM, 6.2 μM, 12.5 μM, 25 μM, 50 μM, 100 μM, and 200 μM. Binding was monitored at a flow rate of 30 μL/min. […] Data were fitted using a steady-state affinity equation.
Assays were performed at 25°C using a BIACORE S200 (GE Healthcare) surface plasmon resonance (SPR) instrument. The Kelch domains of KLHL20 and KLHL3 were immobilized on sensor chip CM5 (GE Healthcare) using amine coupling. […] Binding was monitored using a flow rate of 30 μL/min. The peptide analytes were prepared in HBS-P buffer (GE Healthcare). Data reported were after reference flow cell signal subtraction. Data were analyzed by one-site steady-state affinity analysis using the Biacore S200 Evaluation software and the fitting equation Req=CRmax/KD+C+RI . (RI, bulk refractive index contribution; Rmax, maximum response; KD, dissociation constant; C, analyte concentration).

NRF2: NRF2, interaction with the Kelch domain of KEAP1
Binding affinity for KEAP1 Kelch domain (Kelch domain of KEAP1): low nanomolar

SKLRELGRRDAADFLLKA [DAPK1 peptide spanning the C-terminal site residues 1,378–1,395]
KD (μM), Immobilized Protein: KLHL20 (Kelch domain of KLHL20): N.B
